From BindingDB's records for patent US12384798 (Nanjing Ruijie Pharma Co., 2025)

Assays:
Acetyl-CoA carboxylase 1 = Acetyl-CoA carboxylase 1 (Homo sapiens, UniProt Q13085); assay: In Vitro Assay of Acetyl-CoA Carboxylase (ACC) Inhibition
Protocol: (§1) An exemplary procedure for the in vitro ACC inhibition assay, which can be used to determine the inhibitory action of the compounds of the invention toward either ACC1 or ACC2, is as follows. The ADP-Glo™ kinase assay kit from Promega was used. The ADP-Glo™ kinase assay is a luminescent ADP detection assay to measure enzymatic activity by quantifying the amount of ADP produced during an enzyme reaction. The assay was performed in two steps; first, after the enzyme reaction, an equal volume of ADP-Glo™ reagent was added to terminate the reaction and deplete the remaining ATP. Then, the kinase detection reagent was added to simultaneously convert ADP to ATP and allow the newly synthesized ATP to be measured using a luciferase/luciferin reaction. Luminescence can be correlated to ADP concentrations by using an ATP-to-ADP conversion curve. The detailed procedure was as follows. 4.5 μL of a working solution was added to a 384-well plate. […] A final ACC reaction solution consisted of: 0.5 nM ACC, 10 μM ATP, 5 μM acetyl-CoA, and 15 mM NaHCO3; and the final concentrations of the compound were measured as follows: 1 μM, 0.333 μM, 0.111 μM, 0.037 μM, 0.0123 μM, 0.00411 μM, 0.00137 μM, 0.000457 μM, 0.000152 μM, and 0.000051 μM. […] The plates were incubated at room temperature for 40 minutes, then read on a Perkin Elmer EnVision 2104 plate reader for luminescence in relative light unit (RLU).

Acetyl-CoA carboxylase 2 = Acetyl-CoA carboxylase 2 (Homo sapiens, UniProt O00763); assay: as above
Protocol: as §1

Sequence of Acetyl-CoA carboxylase 2 (O00763 whole entry): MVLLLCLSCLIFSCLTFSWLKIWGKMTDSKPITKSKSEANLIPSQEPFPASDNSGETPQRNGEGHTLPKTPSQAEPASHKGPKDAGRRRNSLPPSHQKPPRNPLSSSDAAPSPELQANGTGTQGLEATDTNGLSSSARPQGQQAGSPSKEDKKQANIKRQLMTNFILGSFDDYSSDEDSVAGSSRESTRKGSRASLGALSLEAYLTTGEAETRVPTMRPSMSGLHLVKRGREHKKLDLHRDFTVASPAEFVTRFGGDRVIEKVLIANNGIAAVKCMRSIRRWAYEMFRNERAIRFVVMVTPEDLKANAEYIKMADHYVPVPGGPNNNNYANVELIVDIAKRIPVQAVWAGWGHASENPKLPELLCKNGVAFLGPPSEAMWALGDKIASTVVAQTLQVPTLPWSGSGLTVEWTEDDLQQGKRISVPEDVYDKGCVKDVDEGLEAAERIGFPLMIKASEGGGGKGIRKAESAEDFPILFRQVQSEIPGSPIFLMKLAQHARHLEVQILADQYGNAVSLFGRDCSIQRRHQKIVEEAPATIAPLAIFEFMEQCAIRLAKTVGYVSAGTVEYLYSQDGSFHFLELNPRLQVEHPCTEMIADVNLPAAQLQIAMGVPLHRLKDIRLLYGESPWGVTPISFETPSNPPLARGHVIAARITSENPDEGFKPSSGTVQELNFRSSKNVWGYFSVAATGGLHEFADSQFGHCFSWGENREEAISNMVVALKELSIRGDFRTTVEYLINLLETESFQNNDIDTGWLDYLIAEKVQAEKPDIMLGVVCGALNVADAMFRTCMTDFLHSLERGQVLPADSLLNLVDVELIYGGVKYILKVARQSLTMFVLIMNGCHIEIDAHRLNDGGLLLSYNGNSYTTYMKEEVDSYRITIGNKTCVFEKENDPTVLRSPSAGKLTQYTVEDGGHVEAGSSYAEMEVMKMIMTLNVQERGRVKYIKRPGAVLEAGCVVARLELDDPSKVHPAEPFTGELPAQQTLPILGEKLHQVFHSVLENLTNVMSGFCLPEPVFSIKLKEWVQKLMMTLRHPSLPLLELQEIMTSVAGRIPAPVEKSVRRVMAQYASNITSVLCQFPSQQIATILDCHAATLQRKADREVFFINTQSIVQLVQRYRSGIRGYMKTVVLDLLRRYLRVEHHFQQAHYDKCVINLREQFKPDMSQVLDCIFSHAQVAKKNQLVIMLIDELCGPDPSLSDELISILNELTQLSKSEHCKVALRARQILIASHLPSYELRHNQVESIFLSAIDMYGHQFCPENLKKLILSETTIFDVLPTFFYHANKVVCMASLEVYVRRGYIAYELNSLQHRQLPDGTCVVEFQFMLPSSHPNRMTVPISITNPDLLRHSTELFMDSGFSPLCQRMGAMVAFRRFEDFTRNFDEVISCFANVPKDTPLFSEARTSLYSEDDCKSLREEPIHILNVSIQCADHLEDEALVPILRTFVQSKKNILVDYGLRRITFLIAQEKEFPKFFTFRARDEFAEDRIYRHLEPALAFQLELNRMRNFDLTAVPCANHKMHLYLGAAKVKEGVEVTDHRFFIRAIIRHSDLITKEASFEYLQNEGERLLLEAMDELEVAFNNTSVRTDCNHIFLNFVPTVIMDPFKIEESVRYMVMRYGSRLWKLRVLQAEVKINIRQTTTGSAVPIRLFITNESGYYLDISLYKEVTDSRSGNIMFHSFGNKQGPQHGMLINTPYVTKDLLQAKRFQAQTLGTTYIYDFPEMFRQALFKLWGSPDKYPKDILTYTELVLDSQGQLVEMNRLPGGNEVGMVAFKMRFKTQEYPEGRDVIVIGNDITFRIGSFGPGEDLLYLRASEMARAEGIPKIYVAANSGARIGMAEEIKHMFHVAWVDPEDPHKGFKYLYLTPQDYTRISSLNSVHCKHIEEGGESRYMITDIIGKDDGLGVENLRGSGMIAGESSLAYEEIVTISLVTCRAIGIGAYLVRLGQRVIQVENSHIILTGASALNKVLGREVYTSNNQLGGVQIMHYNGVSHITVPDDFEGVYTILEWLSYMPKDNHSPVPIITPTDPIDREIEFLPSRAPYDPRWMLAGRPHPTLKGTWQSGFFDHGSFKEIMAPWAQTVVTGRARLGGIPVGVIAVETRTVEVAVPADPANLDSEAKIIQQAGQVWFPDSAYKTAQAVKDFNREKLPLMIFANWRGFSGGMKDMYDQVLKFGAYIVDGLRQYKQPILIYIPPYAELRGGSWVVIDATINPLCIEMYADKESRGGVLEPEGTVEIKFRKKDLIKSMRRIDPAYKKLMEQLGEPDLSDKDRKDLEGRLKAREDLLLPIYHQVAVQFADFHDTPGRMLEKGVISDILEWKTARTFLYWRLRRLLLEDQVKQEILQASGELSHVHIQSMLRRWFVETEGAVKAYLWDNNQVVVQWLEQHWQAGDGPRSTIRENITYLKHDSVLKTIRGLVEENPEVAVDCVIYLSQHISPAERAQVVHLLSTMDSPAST

Work on `COc1ccccc1[C@H](Cn1c(=O)n(CC2CC(C(=O)O)C2)c(=O)c2c(C)c(-c3ncco3)sc21)OC1CCOCC1` (some centres not stated) [US12384798, Compound c-1] yielded an IC50 (Acetyl-CoA carboxylase 1) of 0.487 nM and an IC50 (Acetyl-CoA carboxylase 2) of 10 nM.
